Patent US20060069132A1, “Azolecarboxamide herbicides” (priority 2004, published 2006)

Assays:
bermudagrass = experiment: Test C pre-/postemergence herbicide test; format: in vivo, Cynodon dactylon; conditions: for Plant response rating, Bermudagrass: preemergence
Outline: (§1)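 Visual injury scores run from 0 (no effect) to 100 (complete control), assessed relative to untreated controls 12 to 14 days after treatment in the greenhouse. Chemicals were formulated in a non-phytotoxic solvent mixture with surfactant and applied to soil after planting or to emerged plants at the 1- to 4-leaf stage.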

cocklebur = experiment: Test C pre-/postemergence herbicide test; format: in vivo, Xanthium strumarium
Outline: as §1

corn = experiment: Test C pre-/postemergence herbicide test; format: in vivo, Zea mays; conditions: for Plant response rating, Corn: preemergence
Outline: as §1

woolly cupgrass = experiment: Test C pre-/postemergence herbicide test; format: in vivo, Eriochloa villosa; conditions: for Plant response rating, Cupgrass, Woolly: preemergence
Outline: as §1

giant foxtail = experiment: Test C pre-/postemergence herbicide test; format: in vivo, Setaria faberi; conditions: for Plant response rating, Foxtail, Giant: preemergence
Outline: as §1

goosegrass = experiment: Test C pre-/postemergence herbicide test; format: in vivo, Eleusine indica; conditions: for Plant response rating, Goosegrass: preemergence
Outline: as §1

kochia = experiment: Test C pre-/postemergence herbicide test; format: in vivo, Kochia scoparia; conditions: for Plant response rating, Kochia: preemergence
Outline: as §1

morningglory = experiment: Test C pre-/postemergence herbicide test; format: in vivo, Ipomoea coccinea; parameters: key to Plant response rating, Morningglory: 0 = no effect, 100 = complete control; conditions: for Plant response rating, Morningglory: preemergence
Outline: as §1

yellow nutsedge = experiment: Test C pre-/postemergence herbicide test; format: in vivo, Cyperus esculentus; conditions: for Plant response rating, Nutsedge, Yellow: preemergence
Outline: as §1

soybean = experiment: Test C pre-/postemergence herbicide test; format: in vivo, Glycine max; conditions: for Plant response rating, Soybean: preemergence
Outline: as §1

velvetleaf = experiment: Test C pre-/postemergence herbicide test; format: in vivo, Abutilon theophrasti; conditions: for Plant response rating, Velvetleaf: preemergence
Outline: as §1

barnyardgrass = experiment: Test C flooded paddy test; format: in vivo, Echinochloa crus-galli
Outline: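 Postemergence sprays were applied to plants 2 to 18 cm tall (1- to 4-leaf stage); in the flooded paddy test, barnyardgrass was grown to the 2-leaf stage. After 12 to 14 days in a greenhouse, injury was visually rated against untreated controls on a 0–100 scale (100 = complete control).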

[1] = 125 g ai/ha, scale 0 (no effect) to 100 (complete control), visual, 12 to 14 days
[2] = 250 g ai/ha, scale 0 to 100 (0 no effect, 100 complete control), visual, 12 to 14 days
[3] = Preemergence, 500 g ai/ha, scale 0 to 100, 0 no effect, 100 complete control

CCn1nc(C(C)(C)C)cc1C(=O)Nc1cccc(C(N)=O)n1 [Compound 162, 6-[[[3-(1,1-dimethylethyl)-1-ethyl-1H-pyrazol-5-yl]carbonyl]amino]-2-pyridinecarboxamide]
Plant response rating, Bermudagrass (bermudagrass; 62 g ai/ha, scale 0 to 100, 0 no effect, 100 complete control): 0 | Plant response rating, Bermudagrass (bermudagrass; [1]): 0 | Plant response rating, Bermudagrass (bermudagrass; [2]): 20 | Bermudagrass plant response rating (bermudagrass; [3]): 40 | Plant response rating, Cocklebur (cocklebur; 250 g ai/ha, scale 0 to 100 (0 no effect, 100 complete control), visual, 12 to 14 days, preemergence): 65 | Cocklebur plant response rating (cocklebur; [3]): 75 | Plant response rating, Corn (corn; 62 g ai/ha, scale 0 to 100): 20 | Plant response rating, Corn (corn; [1]): 70 | Plant response rating, Corn (corn; [2]): 75 | Corn plant response rating (corn; [3]): 75 | Plant response rating, Cupgrass, Woolly (woolly cupgrass; 62 g ai/ha, scale 0 to 100): 0 | Plant response rating, Cupgrass, Woolly (woolly cupgrass; [1]): 0 | Plant response rating, Cupgrass, Woolly (woolly cupgrass; [2]): 0 | Cupgrass, Woolly plant response rating (woolly cupgrass; [3]): 100 | Plant response rating, Foxtail, Giant (giant foxtail; 62 g ai/ha, scale 0 to 100): 55 | Plant response rating, Foxtail, Giant (giant foxtail; [1]): 60 | Plant response rating, Foxtail, Giant (giant foxtail; [2]): 60 | Foxtail, Giant plant response rating (giant foxtail; [3]): 75 | Plant response rating, Goosegrass (goosegrass; 62 g ai/ha, scale 0 to 100): 60 | Plant response rating, Goosegrass (goosegrass; [1]): 60 | Goosegrass plant response rating (goosegrass; [3]): 80 | Plant response rating, Kochia (kochia; 62 g ai/ha, scale 0 to 100): 65 | Plant response rating, Kochia (kochia; [1]): 75 | Kochia plant response rating (kochia; [3]): 100 | Plant response rating, Morningglory (morningglory; 62 g ai/ha, scale 0 to 100): 45 | Plant response rating, Morningglory (morningglory; [1]): 100 | Morningglory plant response rating (morningglory; [3]): 100 | Plant response rating, Nutsedge, Yellow (yellow nutsedge; 62 g ai/ha, scale 0 to 100): 0 | Plant response rating, Nutsedge, Yellow (yellow nutsedge; [1]): 20 | Nutsedge, Yellow plant response rating (yellow nutsedge; [3]): 60 | Plant response rating, Soybean (soybean; 62 g ai/ha, scale 0 to 100): 15 | Plant response rating, Soybean (soybean; [1]): 75 | Soybean plant response rating (soybean; [3]): 100 | Plant response rating, Velvetleaf (velvetleaf; 62 g ai/ha, scale 0 to 100): 70 | Plant response rating, Velvetleaf (velvetleaf; [1]): 75 | Velvetleaf plant response rating (velvetleaf; [3]): 100 | Barnyardgrass plant response rating (barnyardgrass; 62 g ai/ha, scale 0 to 100 (0 no effect, 100 complete control)): 45 | Barnyardgrass plant response rating (barnyardgrass; 125 g ai/ha, scale of 0 to 100, 0 is no effect, 100 is complete control): 65 | Barnyardgrass plant response rating (barnyardgrass; 250 g ai/ha, scale of 0 to 100, 0 is no effect, 100 is complete control): 75 | Plant response rating, Barnyardgrass (barnyardgrass; 500 g ai/ha, visual rating after 12 to 14 days, scale 0 to 100 (0 no effect, 100 complete control)): 90
